Source: publication PMC11994314, “Binding mode between peptidyl-tRNA hydrolase and the peptidyl-A76 moiety of the substrate” (The Journal of Biological Chemistry, 2025)

B1: C-terminal 16-amino acid deletion mutant of Thermus thermophilus HB8 peptidyl-tRNA hydrolase (ΔC16 TtPth) (domain or fragment, UniProt Q5SHZ2 1-167, looked up)
chain: MFLVVGQGNPGERYARTRHNLGFMVLDRLGLSFRPRGEALVAEAEGGLFLKPLTYYNLTGRAVAPLARFYKIPPERILVVHDEMDLPLGRIRFKAGGSAAGNRGVLSIEEALGTRAFHRLRLGIGKPPDPSRGAEYVLSPFREEELPVVERVLEAAKEAVWCWVREG
notes: Peptidyl-tRNA hydrolase (Pth, Pth1 type) of Thermus thermophilus HB8, lacking the C-terminal 16 amino acid residues (the C-terminal α-helix); the construct ends with Arg165-Glu166-Gly167; The His-tag was removed with thrombin; also called TtPth⋅tripeptide; C-terminal α-helix (C-terminal 16 amino acid residues) deletion mutant; source: E. coli BL21(DE3), purified (Ni-chelating column, thrombin …)

How the values were obtained:
[1] = molecular target: T1, TtPth (Thermus thermophilus peptidyl-tRNA hydrolase) (Thermus thermophilus, UniProt Q5SHZ2); test: X-ray crystal structure (co-crystallisation), […] Å; format: binding; details: 40 mM AMP in reservoir, MES pH 5.8, 20 °C; active site cleft, acidic pocket, A76 mimic
T1 construct: gene pth; wild type, full length (183 residues inferred from deletion of C-terminal 16 leaving Gly167 as last residue); monomer; wild type for crystals expressed and purified as described previously
T1 sequence (Q5SHZ2 whole entry): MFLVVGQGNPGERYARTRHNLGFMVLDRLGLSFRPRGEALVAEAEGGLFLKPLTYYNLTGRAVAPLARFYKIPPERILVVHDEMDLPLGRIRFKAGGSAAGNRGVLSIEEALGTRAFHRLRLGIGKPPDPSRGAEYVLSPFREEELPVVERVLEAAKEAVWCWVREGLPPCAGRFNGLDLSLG

[2] = molecular target: the molecule itself; test: crystal structure; crystals of ΔC16 TtPth (13 mg/ml, with 20 mM 3′-(N-acetyl-L-alanyl)amino-3′-deoxyadenosine, which was not seen in the density); 0.5 M (NH4)2SO4, 0.1 M Tris-HCl pH 7.5, 30% PEG600, 10% glycerol, 20 °C; contact between crystallographically related molecules, 2.10 Å

| Molecule | X-ray crystal structure (co-crystallisation), 1.60 Å [1] | binding result [2] |
| --- | --- | --- |
| Nc1ncnc2c1ncn2[C@@H]1O[C@H](COP(=O)(O)O)[C@@H](O)[C@H]1O [adenosine 5′-monophosphate] | The structure of TtPth⋅AMP revealed that AMP is bound to an acidic pocket | – |
| B1 | – | binds |
